In patent US20230355753A1, “BISPECIFIC ANTIBODY AGAINST CD3 AND CD20 IN COMBINATION THERAPY FOR TREATING DIFFUSE LARGE B-CELL LYMPHOMA” (GENMAB A/S, priority 2020, published 2023):
Like-named read-outs stand apart in the source and are kept apart here.

Tests used:
R/R B-NHL = test: Ongoing clinical trial of epcoritamab monotherapy (NCT03625037); assay type: in vivo
From the text: Epcoritamab as monotherapy is currently in a clinical trial for the treatment of relapsed/refractory (R/R) (ClinicalTrials.gov Identifier: NCT03625037).

[1] = test system: R/R DLBCL eligible for ASCT; assay type: in vivo; details: in combination with R-DHAX/C, preliminary
Protocol: The trial is conducted in 2 parts: dose escalation (Part 1) and expansion (Part 2). Subjects participate in only one part. Both parts consist of a screening period, a treatment period, a safety follow-up period, and a survival follow-up period.
Epcoritamab is initially be administered in combination with R-DHAX/C in a 3-subject cohort. DLTs are evaluated during the first 28 days.
Dexamethasone (40 mg) is administered intravenously or orally on days 1-4 of a cycle once every 3 weeks (Q3W) for cycles 1-3. Cytarabine (2 g/m^2) is administered intravenously on day 1 (usually over 3 hours), repeated after 12 hours (may result in a second dose on day 2 depending on timing of first dose), once every 3 weeks (Q3W) for cycles 1-3. […] Carboplatin (for DHAC) (AUC=5 mg/ml/min; Calvert's formula) is administered intravenously on day 1 once every 3 weeks (Q3W) for cycles 1-3.
CRS is graded according to the ASTCT grading for CRS (Tables 6 and 7), and for treatment of CRS, subjects should receive supportive care. […]

[2] = test system: CD20-expressing Raji-luc tumor cells; details: even in the presence of an excess of rituximab variant with inert Fc domain (IgG1-RTX-FEAR); cited from earlier work
[3] = test system: primary DLBCL and follicular lymphoma patient biopsies; details: cited from earlier work

## epcoritamab: IgG1 bispecific CD3xCD20 antibody, heavy/light chain pairs SEQ ID NOs: 24/25 and 26/27; CAS 2134641-34-0
R/R B-NHL; human, in vivo
  tolerated dose: at least 48 mg
R/R B-NHL; monotherapy, R/R B-NHL patients, preliminary data
  dose-limiting toxicities: no dose-limiting toxicities reported
[1]; escalation phase, as of Sep. 8, 2021, total of 22 patients dosed, non-validated
  responders observed: 4
[1]; expansion phase 48 mg, as of Sep. 8, 2021, response data not completely entered
  responders observed: 0
[2]
  tumor growth in the xenograft model: effectively reduce tumor growth
[3]; biopsies taken a certain amount of time after administration of an anti-CD20 antibody
  T-cell-mediated cytotoxicity: induced T-cell-mediated cytotoxicity
[3]; biopsy taken 2 weeks after administering the anti-CD20 antibody
  tumor cell kill: up to 40%
